For 87 molecules, melting point results are on record in a melting point compilation (Tetko et al.; mined from patent text by program, amines drawn as free bases though some values may be those of a salt).

As a reminder, the melting point is the temperature, or range, at which the solid turns liquid.

The molecule `COc1cccc(C2(CC(=O)O)C(=O)Nc3ccc(Cl)cc32)c1OC` (configuration not stated) registered a melting point of 235 °C. The result for `ON=C1CCn2c(-c3ccccc3)nc3c(Cl)ccc1c32` reads 251 to 252 °C.

Molecule `Cc1nc(-c2ccccc2)nc(-c2cccc([N+](=O)[O-])c2)c1C(=O)NCCN(C)C` yielded a melting point of 122 to 124 °C. The result for `Oc1ccc2cc(OCCN3CCC(Cc4ccc(F)cc4)CC3)ccc2c1` reads 184 to 185 °C; that for `Cn1cc2c3c(cccc31)C(=O)NCC2`, 194 to 195 °C; that for `Cn1ccnc1S[Si](C)(C)C`, 49 to 52 °C. `Cc1cc(CNC(=O)CCl)c(O)c2c1CCC2=O`: the melting point lay in the range of 166 to 168 °C.

As for `Brc1cn2cc(-c3ccccc3)nc2c(Br)n1`, the melting point came to 254 °C.

On to `COc1ccc(CC(=O)NCCc2cccc(OC)c2OC)cc1OC`, for which the melting point was found to be 80 °C. The result for `O=C1CCC(N2Cc3c(OCC4CCCOC4)cccc3C2=O)C(=O)N1` (configuration not stated) reads 118 to 120 °C; that for `O=[N+]([O-])c1cn2c(n1)OC[C@@H](OCC#Cc1ccc(Br)cc1)C2`, 160 to 162 °C; that for `Cn1c(N2CC3CC2CN3C(=O)OC(C)(C)C)nc(-c2ccncn2)cc1=O` (configuration not stated), 198 to 200 °C. The result for `NS(=O)(=O)c1ccc(C2=C(c3ccc(F)c(Cl)c3)CCC2)cc1` reads 150 to 152 °C.

In turn, `O=C(O)C(c1ccc(F)cc1)N1C(=O)c2ccccc2C1=O` (configuration not stated) registered a melting point of 174 to 180 °C. The result for `CC(=Cc1ccccc1)COc1cc(C)c(NC=O)c(C)c1C` reads 152 to 154 °C; that for `Nc1c(Br)cc(F)cc1[N+](=O)[O-]`, 71.5 to 72.5 °C; that for `O=C1c2ccccc2C(=O)N1OCc1cc[nH]n1`, 166 to 168 °C. Next, `CCOCCN(CC)c1ccc(-c2ccc3c(c2)C=C(C(=O)Nc2ccc(CN(C)C4CCOCC4)cc2)CCS3(=O)=O)cc1`: 194 to 197 °C; `CCCCCCCCCCCCCCCCCCOP(=O)(Cc1c(C)cc(C(C)(C)C)c(O)c1C)OCCCCCCCCCCCCCCCCCC`: 70 to 72 °C.

Consider `CNCc1nnc2n1-c1ccc(Cl)cc1C(c1ccccc1)=NC2`, for which the melting point lay within 152 to 156 °C. Next, `O=C(c1ccccc1)N1CCCc2ncc3ccccc3c21`: 208 to 210 °C; `CC(CO)NC(=O)C(F)(F)F` (configuration not stated): 80 to 81 °C. For `COC(=O)c1ccccc1NC(=O)N(C)C`, the melting point was in the range of 85 to 90 °C. The result for `N=C(Nc1ccc2c(c1)CNCCO2)c1ccsc1` reads 150 to 152 °C. Next, `COc1ccc(C2OCc3ccccc3O2)cc1O` (configuration not stated): 105 to 106 °C; `Cc1cccc(-c2cn(C)cc(-c3cccc(Br)c3)c2=O)c1`: 144 to 147 °C. Next, `Nc1nc(Nc2cccnc2)sc1C(=O)c1ccc(Cl)cc1Cl`: 209 to 210 °C. For the molecule `CC1CC2=C(N3CN(C)N=C3C(c3ccccc3Cl)=NC2)S1=O` (configuration not stated), the melting point lay in the range of 199 to 200 °C. The result for `CCOC(=O)CC(=O)COCC1=C(C(=O)OCC)C(c2cccc(Cl)c2Cl)C(C(=O)OC)=C(C)N1` (configuration not stated) reads 99 to 102 °C; that for `CC(=O)NC[C@H]1CN(c2ccc(-c3ccncc3)c(F)c2)C(=O)O1`, 179 to 180 °C.

For `CON(c1ccc([N+](=O)[O-])cc1C#N)S(=O)(=O)c1ccc(Cl)s1`, the melting point was in the range of 144 to 146 °C. Next, `CCCCCCCC(=O)N(C)Cc1ccc(OCc2ccccc2)c(-c2ccc(C=C3SC(=O)NC3=O)cc2)c1`: 93 °C; `CC(C)(C)c1ccc(-c2ccc(-c3ccc(Br)s3)s2)cc1`: 132 to 136 °C.

The molecule `CCN(CC)C(=O)OCC1CN(C(=S)c2cc(OC)c(OC)c(OC)c2)CCN1C(=O)c1cc(OC)c(OC)c(OC)c1` (configuration not stated) returned a melting point of 106 °C. Next, `O=c1n(CCCN2CCC(c3c[nH]c4ccccc34)CC2)nc2ccccn12`: 112 °C; `CNc1ncc2c(n1)-c1ccc(Cl)cc1C(c1ccccc1F)=NC2`: 172 to 179 °C; `CCOC(=O)C=C(C)C=CC=C(C)C=Cc1c(C)c(Cl)c(C)c(Cl)c1C`: 220 to 222 °C. Molecule `O=C(c1ccc(OCCCl)cc1)N1CCOCC1` returned a melting point of 102 to 104 °C. The result for `c1ccc(COC2COC(c3ccco3)OC2)cc1` (configuration not stated) reads 50 to 52 °C; that for `C[C@H]1Cn2c(=S)[nH]c3cccc(c32)CN1CC1CC1`, 197 °C. Next, `COc1cccc(Oc2nccc(-c3c(-c4ccc(F)cc4)ncn3C3CCNCC3)n2)c1`: 117 to 118 °C; `Oc1cccc(-c2ccc(OC[C@H](O)CCc3cccnc3)cc2)c1`: 169 °C; `Cc1cc(Cl)cc(NC(=O)Cc2ccc(OC3(C(=O)O)CCCC3C)cc2)c1` (configuration not stated): 180 to 182 °C. The result for `Cc1ccc2c(c1)c(N1CCN(C(=O)c3ccco3)CC1)c(C#N)c(=O)n2Cc1ccccc1` reads 146 °C; that for `CSc1sc(C(=O)N2CCCC2)c2c1-c1oncc1C(C)(C)C2`, 114 to 116 °C. As to `COc1cc(C2(C#N)CC2)ccc1OCc1ccccc1`, the melting point worked out at 84 °C. The result for `CCC(CCNC(=O)C(C#N)=Cc1cc(O)c(O)c(OC)c1)NC(=O)C(C#N)=Cc1cc(O)c(O)c(OC)c1` (configuration not stated) reads 256 °C. The result for `Clc1ccc(N2CCN(Cc3ccc4[nH]ccc4c3)CC2)cc1` reads 175 to 176 °C; that for `Nc1ncc2[nH]c3ccccc3c2n1`, 258 to 260 °C; that for `CC(=O)Nc1ccc(C)cc1Oc1c([N+](=O)[O-])cc(C(=O)O)cc1S(N)(=O)=O`, 238 to 240 °C. `Nc1ccc(CP2(=O)OCCCCO2)cc1` registered a melting point of 128 to 129 °C. Turning to `NC(=NO)c1cccc(Oc2ccc3c(c2)S(=O)(=O)N=C2CCCN23)c1`, the melting point was 165 to 169 °C. On to `O=c1[nH]c2cc([N+](=O)[O-])c(-n3ccc(C=NO)c3)cc2n(C2CCCCC2)c1=O`, for which the melting point came to 234 °C. With `CCCCN1C(=O)c2cnc(-c3ccccc3)nc2N(C(=O)CN2CCN(C)CC2)c2ccccc21`, the melting point is 90 to 94 °C. Turning to `O=C(Nc1cccc(C(F)(F)F)c1)c1ccccc1SSc1ccccc1C(=O)Nc1cccc(C(F)(F)F)c1`, the melting point lay within 167 to 168 °C. The result for `O=C(NS(=O)(=O)NCCCN1CCC(Oc2ccc(Cl)c(Cl)c2)CC1)c1ccccc1` reads 93 to 106 °C. Next, `Cc1nn(-c2cccnc2)c(-c2cccc(Cl)c2)c1CC(=O)O`: 163 °C. The result for `CCCCc1nc2cc[nH]c(=O)c2n1Cc1ccc(-c2ccccc2-c2nnn[nH]2)cc1` reads 167 °C; that for `N#CCc1ccc(NS(=O)(=O)c2cccc(Cl)c2Cl)cc1`, 202 to 206 °C; that for `O=C(O)c1ccc(CNC(=O)C(CS)Cc2ccccc2)cc1` (configuration not stated), 156 to 159 °C. `COc1ccc2c(c1)CNN=C2Cc1c(Cl)cncc1Cl` registered a melting point of 181 to 183 °C. The molecule `CCN(CC)C(=O)C1CCCN(C(=O)CN(C(=O)CNC(=O)Nc2cccc(C)c2)c2ccccc2)C1` (racemic) returned a melting point of 156 °C. Next, `CCOC(=O)C(C)Oc1ncn(-c2ccc(OC(F)(F)F)cc2)n1` (configuration not stated): 52 to 53 °C. Next, `CC1=C(C)C(N)(Cc2ccccc2)C(C)C2=C1OCC2c1ccc(C)cc1` (configuration not stated): 99 to 100 °C. The result for `Cn1ccc2cc(NC(=O)Nc3cccc4cccnc34)ccc21` reads 205 to 209 °C. Turning to `Cn1nc(O[C@@H]2c3cc([N+](=O)[O-])ccc3OC(CF)(CF)[C@H]2O)ccc1=O` (relative stereo), the melting point fell in the range of 226 to 228 °C.

`c1ccc2c(c1)Sc1ccccc1N2c1ccc(-n2ccnc2-c2nccn2-c2ccc(N3c4ccccc4Sc4ccccc43)cc2)cc1` returned a melting point of 227 to 232 °C. Regarding `Cc1c(Cl)ccc(NC(=O)CN2C(=O)c3ccccc3C2=O)c1Cl`, the melting point fell in the range of 245 to 246 °C. Next, `COC(=O)/C(=C/C=C/c1cc2cc(OC)ccc2[nH]1)OC`: 150 to 151 °C; `O=c1[nH]c2cc(Cl)c(F)c([N+](=O)[O-])c2[nH]c1=O`: 308 to 310 °C. The result for `CCOC(=O)CN1CSCCC(N2C(=O)c3ccccc3C2=O)C1=O` (configuration not stated) reads 192 to 194 °C; that for `c1ccc(Oc2ccc(N3CCNCC3)nc2)cc1`, 80.5 to 83 °C. The result for `COc1ccccc1N1CCN(CCNC(=O)CCN2CC=C(c3c[nH]c4cc(F)ccc34)CC2)CC1` reads 175 to 177 °C; that for `COc1nc2cc(F)cc(CN=[N+]=[N-])c2nc1OC`, 75 to 78 °C.

As for `COc1ccc(F)cc1C(C)(C)CC(O)(Cc1cccc(C(N)=O)c1)C(F)(F)F` (configuration not stated), the melting point lay within 70 to 75 °C. Turning to `O=C(Nc1cccc2cc(Br)cnc12)c1ccc(O)c(O)c1O`, the melting point lay within 183 to 193 °C. The result for `Cn1nc(-c2c(F)cccc2Cl)nc1-c1ccc(Oc2ccc(C(F)(F)F)cn2)c(Cl)c1` reads 116 to 117 °C. The result for `CC(=O)Nc1nc(NC(C)=O)nc(-c2ccc(Oc3ccccc3)cc2)n1` reads 243 to 245 °C; that for `NCCN1CCC(=C2c3ccccc3C=Cc3ccccc32)CC1`, 102 °C. Next, `CC1CCCN1C1CCN(c2ccc(C(=O)NC3CCOCC3)cc2)C1` (configuration not stated): 180 °C. Molecule `CC1=C(C(=O)OC(C)C)C(c2cccc([N+](=O)[O-])c2)C(C(=O)O)=NN1` (configuration not stated) had a melting point of 195 °C.

In turn, `CC#CCOc1ccc(S(=O)(=O)C2(C(=O)O)CCN(Cc3ccc(F)cc3)CC2)cc1` showed a melting point of 106 °C. The molecule `COC(=O)c1ccccc1NCCCc1ccccc1` displayed a melting point of 103 to 105 °C. Next, `O=[N+]([O-])C1=C2N(Cc3ccc(Cl)nc3)CCCN2C2CCC1O2` (configuration not stated): 143 to 145 °C; `CCN(CC)S(=O)(=O)c1ccc(C(CC2CCCC2)C(=O)Nc2nc3ccc(OC)nc3s2)cc1` (configuration not stated): 150 to 152 °C; `CCCC1=C(c2cccc([N+](=O)[O-])c2)C(=NO)CC1`: 128 to 129 °C. In the case of `O=C(NNC(=O)c1occ(-c2ccccc2)c1-c1ccccc1)c1ccc(O)c(F)c1`, the melting point fell in the range of 243 to 245 °C.
